The target in assay [1] is T1, μ opioid receptor (Homo sapiens, UniProt P35372). Briefly: μ-receptor [35S]GTPγS functional assay. The assay is classed as biochemical. The settings on record: for Emax: maximal effect relative to DAMGO, read-out: μ GTP Emax. The method, then:
[^35S]GTPγS functional assays are conducted using freshly thawed ORL-1 or μ-receptor membranes, as appropriate. Assay reactions are prepared by sequentially adding the following reagents to binding buffer (100 mM NaCl, 10 mM MgCl2, 20 mM HEPES, pH 7.4) on ice (final concentrations indicated): membrane protein (0.066 mg/mL for ORL-1 receptor and 0.026 mg/mL for μ-receptor), saponin ([…]), GDP ([…]) and [^35S]GTPγS (0.20 nM; NEN). Aliquots of the prepared membrane solution (190 μL/well) are transferred to 96-shallow well polypropylene plates containing 10 μL of 20× concentrated stock solutions of the agonist nociceptin prepared in dimethyl sulfoxide (“DMSO”). Plates are incubated for 30 min at room temperature with shaking. Reactions are terminated by rapid filtration onto 96-well Unifilter GF/B filter plates (Packard, Meriden, Conn.) using a 96-well tissue harvester (Brandel, Gaithersburg, Md.) followed by three filtration washes with 200 μL of ice-cold binding buffer (10 mM NaH2PO4, 10 mM Na2HPO4, pH 7.4). Filter plates are subsequently dried at 50° C. for 2-3 h. BetaScint scintillation cocktail (Wallac, Turku, Finland) is added (50 μL/well) and plates are counted using a Packard Top-Count for 1 min/well. Data are analyzed using the sigmoidal dose-response curve fitting functions in GraphPad PRISM, v. 3.0.
μ GTP EC50 is the concentration of a compound providing 50% of the maximal response for the compound at a μ receptor.
μ GTP Emax % is the maximal effect elicited by a compound relative to the effect elicited by [D-Ala2, N-methyl-Phe4, Gly-ol5]-enkephalin (“DAMGO”), a standard μ agonist. Generally, the μ GTP Emax (%) value measures the efficacy of a compound to treat or prevent pain or diarrhea.
On the technique in general: GTPγS is a poorly hydrolysed GTP analogue; its binding reports G protein activation.

The target of assay [2] is T1, μ opioid receptor. The experiment in a line: μ-opioid receptor radioligand dose-displacement binding assay ([3H]-diprenorphine). The method, then: (§1) Radioligand dose-displacement binding assays for ORL-1 and μ receptors use 0.1 nM [^3H]-nociceptin or 0.2 nM [^3H]-diprenorphine (NEN, Boston, Mass.), respectively, with […] membrane protein/well in a final volume of […] binding buffer (10 mM MgCl2, 1 mM EDTA, 5% DMSO, 50 mM HEPES, pH 7.4). Reactions are carried out in the absence or presence of increasing concentrations of unlabeled nociceptin (American Peptide Company, Sunnyvale, Calif.) or naloxone, for ORL-1 and […], respectively. All reactions are conducted in 96-deep well polypropylene plates for 1-2 h at room temperature. Binding reactions are terminated by rapid filtration onto 96-well Unifilter GF/C filter plates (Packard, Meriden, Conn.) presoaked in 0.5% polyethylenimine using a 96-well tissue harvester (Brandel, Gaithersburg, Md.) followed by three filtration washes with 500 μL of ice-cold binding buffer. Filter plates are subsequently dried at 50° C. for 2-3 h. BetaScint scintillation cocktail (Wallac, Turku, Finland) is added (50 μl/well), and plates are counted using a Packard Top-Count for 1 min/well. The data are analyzed using the one-site competition curve fitting functions in GraphPad PRISM v. 3.0 (San Diego, Calif.).

Assay [3] deals with T2, kappa opioid receptor (Homo sapiens, UniProt P41145).
T2 construct: expressed in transfected cells; host or cells: HEK-293
Briefly: κ opioid receptor binding assay ([3H]-U69,593). The method, then: Membranes from recombinant HEK-293 cells expressing the human kappa opioid receptor (kappa) (cloned in house) were prepared by lysing cells in ice cold hypotonic buffer (2.5 mM MgCl2, 50 mM HEPES, pH 7.4) (10 ml/10 cm dish) followed by homogenization with a tissue grinder/teflon pestle. Membranes were collected by centrifugation at 30,000×g for 15 min at 4° C. and pellets resuspended in hypotonic buffer to a final concentration of 1-3 mg/ml. Protein concentrations were determined using the BioRad protein assay reagent with bovine serum albumen as standard. Aliquots of kappa receptor membranes were stored at −80° C.
Radioligand dose displacement assays used 0.4-0.8 nM [^3H]-U69,593 (NEN; 40 Ci/mmole) with 10-20 μg membrane protein (recombinant kappa opioid receptor expressed in HEK 293 cells; in-house prep) in a final volume of 200 μl binding buffer (5% DMSO, 50 mM Trizma base, pH 7.4). Non-specific binding was determined in the presence of 10 μM unlabeled naloxone or U69,593. All reactions were performed in 96-well polypropylene plates for 1 h at room temperature. Binding reactions were determined by rapid filtration onto 96-well Unifilter GF/C filter plates (Packard) presoaked in 0.5% polyethylenimine (Sigma). Harvesting was performed using a 96-well tissue harvester (Packard) followed by five filtration washes with 200 μl ice-cold binding buffer. Filter plates were subsequently dried at 50° C. for 1-2 hours. Fifty μl/well scintillation cocktail (MicroScint; Packard) was added and plates were counted in a Packard Top-Count for 1 min/well.

Assay [4] addresses T3, human opioid receptor-like (ORL-1) receptor (Homo sapiens, UniProt P41146).
T3 construct: host or cells: HEK-293
Briefly: ORL-1 receptor radioligand dose-displacement binding assay ([3H]-nociceptin). The method, then: All reagents are obtained from Sigma (St. Louis, Mo.) unless noted otherwise. Membranes from recombinant HEK-293 cells expressing the human opioid receptor-like (ORL-1) receptor (Perkin Elmer, Boston, Mass.) are prepared by lysing cells in ice-cold hypotonic buffer (2.5 mM MgCl2, 50 mM HEPES, pH 7.4) (10 mL/10 cm dish), followed by homogenization with a tissue grinder/teflon pestle. Membranes are collected by centrifugation at 30,000×g for 15 min at 4° C., and pellets are resuspended in hypotonic buffer to a final concentration of 1-3 mg/mL. Protein concentrations are determined using the BioRad (Hercules, Calif.) protein assay reagent with bovine serum albumen as standard. Aliquots of the ORL-1 receptor membranes are stored at −80° C.
as §1

Assay [5] deals with T2, kappa opioid receptor. The experiment in a line: κ opioid receptor functional [35S]GTPγS binding assay. The class given is biochemical. The settings on record: for Emax: maximal effect relative to U69,593, read-out: κ GTP Emax. How it is done:
κ GTP EC50 is the concentration of a compound providing 50% of the maximal response for the compound at an K receptor.
κ GTP Emax % is the maximal effect elicited by a compound relative to the effect elicited by U69,593.
(§2) The κ and δ opioid receptor functional [^35S]GTPγS binding assays were conducted as follows. Kappa or delta opioid receptor membrane solution was prepared by sequentially adding final concentrations of 0.026 μg/μl membrane protein (kappa: in-house, delta: Perkin Elmer), 10 μg/ml saponin, 3 μM GDP and 0.20 nM [^35S]GTPγS to binding buffer (100 mM NaCl, 10 mM MgCl2, 20 mM HEPES, pH 7.4) on ice. The prepared membrane solution (190 μl/well) was transferred to 96-shallow well polypropylene plates containing 10 μl of 20× concentrated stock solutions of agonist prepared in DMSO. Plates were incubated for 30 min at room temperature with shaking. Reactions were terminated by rapid filtration onto 96-well tissue harvester (Packard) and followed by three filtration washes with 200 μl ice-cold binding buffer (10 mM NaH2PO4), 10 mM Na2HPO4, pH 7.4). Filter plates were subsequently dried at 50° C. for 2-3 hours. Fifty μl/well scintillation cocktail (MicroScint20, Packard) was added and plates were counted in a Packard Top-Count for 1 min/well.

The target of assay [6] is T4, delta opioid receptor (Homo sapiens, UniProt P41143).
T4 construct: purchased Perkin Elmer; host or cells: CHO-K1
Briefly: δ opioid receptor functional [35S]GTPγS binding assay. The assay is classed as biochemical. The settings on record: for Emax: maximal effect relative to met-enkephalin, read-out: δ GTP Emax. The method, then:
δ GTP EC50 is the concentration of a compound providing 50% of the maximal response for the compound at an δ receptor.
δ GTP Emax % is the maximal effect elicited by a compound relative to the effect elicited by met-enkephalin.
as §2

The target in assay [7] is T4, delta opioid receptor. Briefly: δ opioid receptor binding assay ([3H]-Naltrindole). How it is done:
Radioligand dose-displacement assays used 0.2 nM [^3H]-Naltrindole (NEN; 33.0 Ci/mmole) with 10-20 μg membrane protein (recombinant delta opioid receptor expressend in CHO-K1 cells; Perkin Elmer) in a final volume of 500 μl binding buffer (5 mM MgCl2, 5% DMSO, 50 mM Trizma base, pH 7.4). Non-specific binding was determined in the presence of 25 μM unlabeled naloxone. All reactions were performed in 96-deep well polypropylene plates for 1 h at room temperature. Binding reactions were determined by rapid filtration onto 96-well Unifilter GF/C filter plates (Packard) presoaked in 0.5% polyethylenimine (Sigma). Harvesting was performed using a 96-well tissue harvester (Packard) followed by five filtration washes with 500 μl ice-cold binding buffer. Filter plates were subsequently dried at 50° C. for 1-2 hours. Fifty μl/well scintillation cocktail (MicroScint, Packard) was added and plates were counted in a Packard Top-Count for 1 min/well.

The target of another assay is T5, ORL-1 receptor (Homo sapiens, UniProt P41146).
T5 construct: host or cells: HEK-293
Briefly: ORL-1 receptor [35S]GTPγS functional assay. The class given is biochemical. How it is done: Filter plates are subsequently dried at 50° C. for 2-3 h. […] 3.0.

[8] abbreviates: Ki for binding to μ-opioid receptors.

pEC50, pKi: −log10 of the molar value. Like-named read-outs stand apart in the source and are kept apart here. Where only a bound is given, the exact number is not on record here.

T2 sequence (P41145 whole entry): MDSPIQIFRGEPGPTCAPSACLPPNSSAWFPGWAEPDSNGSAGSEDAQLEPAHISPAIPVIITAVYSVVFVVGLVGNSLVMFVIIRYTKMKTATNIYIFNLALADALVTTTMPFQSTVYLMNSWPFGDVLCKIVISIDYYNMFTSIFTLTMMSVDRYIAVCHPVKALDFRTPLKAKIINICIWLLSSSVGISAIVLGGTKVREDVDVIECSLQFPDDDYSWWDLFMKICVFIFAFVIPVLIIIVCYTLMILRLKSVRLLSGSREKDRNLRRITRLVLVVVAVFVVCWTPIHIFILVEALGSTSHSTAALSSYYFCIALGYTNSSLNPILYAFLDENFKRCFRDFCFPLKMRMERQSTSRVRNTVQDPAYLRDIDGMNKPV
T3 sequence (P41146 whole entry): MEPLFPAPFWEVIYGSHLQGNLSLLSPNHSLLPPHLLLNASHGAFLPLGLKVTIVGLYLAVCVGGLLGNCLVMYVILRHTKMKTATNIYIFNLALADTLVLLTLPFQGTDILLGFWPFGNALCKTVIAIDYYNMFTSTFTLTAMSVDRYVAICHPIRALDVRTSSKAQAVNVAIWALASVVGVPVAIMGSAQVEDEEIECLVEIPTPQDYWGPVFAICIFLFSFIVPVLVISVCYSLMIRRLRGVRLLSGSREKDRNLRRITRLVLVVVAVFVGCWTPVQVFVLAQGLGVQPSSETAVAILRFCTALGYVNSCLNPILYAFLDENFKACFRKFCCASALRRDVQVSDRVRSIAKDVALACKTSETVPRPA
T4 sequence (P41143 whole entry): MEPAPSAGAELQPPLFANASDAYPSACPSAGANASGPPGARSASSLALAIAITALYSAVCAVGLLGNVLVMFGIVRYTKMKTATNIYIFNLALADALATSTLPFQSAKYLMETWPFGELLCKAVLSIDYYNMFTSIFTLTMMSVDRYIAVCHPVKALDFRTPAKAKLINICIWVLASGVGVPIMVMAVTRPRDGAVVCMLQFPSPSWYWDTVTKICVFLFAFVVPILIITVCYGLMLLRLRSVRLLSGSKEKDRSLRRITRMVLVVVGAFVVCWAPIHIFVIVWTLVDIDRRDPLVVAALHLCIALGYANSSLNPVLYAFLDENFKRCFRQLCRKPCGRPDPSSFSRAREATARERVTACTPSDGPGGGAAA
T1 sequence (P35372 whole entry): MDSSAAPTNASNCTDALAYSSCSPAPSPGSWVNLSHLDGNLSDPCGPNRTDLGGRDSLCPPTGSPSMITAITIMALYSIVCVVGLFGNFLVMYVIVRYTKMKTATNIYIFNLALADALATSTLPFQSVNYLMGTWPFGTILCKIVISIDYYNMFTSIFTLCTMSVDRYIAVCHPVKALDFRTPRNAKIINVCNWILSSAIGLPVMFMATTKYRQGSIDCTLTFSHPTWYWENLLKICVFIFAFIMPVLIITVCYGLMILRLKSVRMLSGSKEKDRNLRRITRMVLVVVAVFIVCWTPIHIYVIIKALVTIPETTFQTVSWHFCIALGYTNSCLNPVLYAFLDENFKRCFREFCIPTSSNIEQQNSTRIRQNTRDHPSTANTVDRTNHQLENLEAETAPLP
T5 sequence (P41146 whole entry): as the sequence (P41146 whole entry) above

One may read the pEC50 as the negative decadic logarithm of the EC50, by convention in mol/L. As a reminder, the Emax is the size of the effect at its maximum, as opposed to the concentration needed. Usually pKi stands for −log10 of the Ki, conventionally taken in molar units. Turning to `CCOC(=O)Cc1nc(C2(c3ccccc3)CCN(CCC(C(=O)N(C)C)(c3ccccc3)c3ccccc3)CC2)no1` [AFL], the negative logarithm of the EC50 (pEC50) on μ opioid receptor [1] is 8.98; at kappa opioid receptor [5] it was 5.77; on delta opioid receptor [6], 7.08; at ORL-1 receptor, below 4.70. In addition, the maximal response (Emax) at μ opioid receptor [1] is 117%; on kappa opioid receptor [5], 52.7%; at delta opioid receptor [6], 114%; on ORL-1 receptor (maximal effect relative to nociceptin, read-out: ORL1 GTP Emax), 28%. Besides, the pKi on μ opioid receptor [2] (setting [8]) was 8.96; on μ opioid receptor [2] (μ Ki), 8.95; on kappa opioid receptor [3], 7.48; in assay [4], 6.16; on delta opioid receptor [7], 6.65.

For the compound `CCOC(=O)Cc1nc(C2(c3ccccc3)CCN(CCC(C(=O)N3CCCC3)(c3ccccc3)c3ccccc3)CC2)no1` [AGE], the values for the maximal effect (Emax) at μ opioid receptor [1], at kappa opioid receptor [5] and at delta opioid receptor [6] were 103%, 56% and 104%, respectively. Also, the figures for the negative logarithm of the EC50 (pEC50) on μ opioid receptor [1] (read-out: μ GTP EC50), on kappa opioid receptor [5] (read-out: κ GTP EC50) and at delta opioid receptor [6] (read-out: δ GTP EC50) were 8.69, 6.15 and 7.67, respectively. The pKi was 8.89 at μ opioid receptor [2] (read-out: Ki for binding to μ-opioid receptors); 8.89 on μ opioid receptor [2] (read-out: μ Ki); 7.04 on kappa opioid receptor [3] (read-out: κ Ki); 5.41 in assay [4]; 6.47 at delta opioid receptor [7] (read-out: δ Ki).

Turning to `NC(=O)Cc1nc(C2(c3ccccc3)CCN(CCC(C(=O)N3CCCC3)(c3ccccc3)c3ccccc3)CC2)no1` [AFX], the pEC50 was 8.09 at μ opioid receptor [1] and 5.42 at kappa opioid receptor [5]. In addition, the results for the maximum response (Emax) on μ opioid receptor [1] and on kappa opioid receptor [5] were 90% and 41.7%, respectively. The pKi at μ opioid receptor [2] (setting [8]) was 8.32; on μ opioid receptor [2] (μ Ki) it was 8.32; at kappa opioid receptor [3], 6.44; in assay [4], 5.89; on delta opioid receptor [7], 5.63.

On to `CN(C)C(=O)C(CCN1CCC(c2ccccc2)(c2noc(CC(N)=O)n2)CC1)(c1ccccc1)c1ccccc1` [AFE], for which the negative-log EC50 (pEC50) at μ opioid receptor [1] is 7.79; at kappa opioid receptor [5], 5.90. Moreover, the Emax came out at 116% at μ opioid receptor [1] and 44.7% on kappa opioid receptor [5]. For the same compound, the pKi on μ opioid receptor [2] (setting [8]) is 8.23; at μ opioid receptor [2] (μ Ki), 8.23; at kappa opioid receptor [3], 6.82; in assay [4], 5.74; on delta opioid receptor [7] it was 5.44.

The record behind these values is US20080319020A1, “4-Oxadiazolyl-Piperidine Compounds and Use Thereof” (Purdue Pharma L.P., priority 2005, published 2008).
